Reference: the supplement of paper PMC10307832

Legend:
Assay in all cases: relative viability (nuclei count vs DMSO), 5 days (fraction); higher = more cells survive
[1] = compound: CN1CCC(CC1)OC2=CC(=C(C=C2)NC3=NC=C4C(=N3)N(C(=O)N4C)C5CCCC5)OC [AZ3146] + CC1(C)CCC(c2ccc(Cl)cc2)=C(CN2CCN(c3ccc(C(=O)NS(=O)(=O)c4ccc(N[C@H](CCN5CCOCC5)CSc5ccccc5)c(S(=O)(=O)C(F)(F)F)c4)cc3)CC2)C1 [Navitoclax] (partner 0.5 µM)
In short: (§1)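 A single step with final 0.05% Triton X-100, 1% formaldehyde and 1 ug/ml Hoechst fixed the cells and stained nuclei 5 days after treatment. Lung cancer cell lines in 1536-well plates had been treated by pin tool the day after seeding with one drug alone or a fixed anchor-drug dose plus five library-drug doses (not always all listed) in √10 steps, and nuclei were counted on 4× images. Relative viability is the ratio of nuclei in treated wells to nuclei in vehicle wells, taken as the median of duplicate plates.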

[2] = compound: CN1CCC(CC1)OC2=CC(=C(C=C2)NC3=NC=C4C(=N3)N(C(=O)N4C)C5CCCC5)OC [AZ3146] + CC(=O)c1c(C)c2cnc(Nc3ccc(N4CCNCC4)cn3)nc2n(C2CCCC2)c1=O [Palbociclib] (partner 0.5 µM)
In short: as §1

[3] = compound: CCOC(=O)CCNc1cc(N2CCc3ccccc3CC2)nc(-c2ccccn2)n1 [GSK-J4] + Cc1cc(Nc2cc(N3CCN(C)CC3)nc(Sc3ccc(NC(=O)C4CC4)cc3)n2)n[nH]1 [Tozasertib] (partner 0.1 µM)
In short: as §1

[4] = compound: CN1CCC(CC1)OC2=CC(=C(C=C2)NC3=NC=C4C(=N3)N(C(=O)N4C)C5CCCC5)OC [AZ3146] + C[C@]1(O)C[C@@H](c2nc(-c3ccc4ccc(-c5ccccc5)nc4c3)c3c(N)nccn32)C1 [Linsitinib] (partner 1 µM)
In short: as §1

Cell Line	relative viability ([1]; first compound 0.08 µM)	relative viability ([1]; first compound 0.253 µM)	relative viability ([1]; first compound 0.8 µM)	relative viability ([1]; first compound 2.53 µM)	relative viability ([1]; first compound 8 µM)	relative viability ([2]; first compound 0.08 µM)	relative viability ([2]; first compound 0.253 µM)	relative viability ([2]; first compound 0.8 µM)	relative viability ([2]; first compound 2.53 µM)	relative viability ([2]; first compound 8 µM)	relative viability ([3]; first compound 0.5 µM)	relative viability ([3]; first compound 5 µM)	relative viability ([3]; first compound 15.81 µM)	relative viability ([3]; first compound 50 µM)	relative viability ([4]; first compound 0.08 µM)	relative viability ([4]; first compound 0.253 µM)	relative viability ([4]; first compound 0.8 µM)	relative viability ([4]; first compound 2.53 µM)	relative viability ([4]; first compound 8 µM)	relative viability ([3]; first compound 1.581 µM)
HCC-15	0.725	0.659	0.703	0.718	0.727	0.757	0.668	0.727	0.738	0.68	0.393	0.344	0.319	0.2	0.815	0.946	0.874	0.879	0.879	
PC-3 [JPC-3]	0.679	0.836	0.802	0.797	0.85	0.505		0.47	0.555	0.482	0.838	0.883	0.815	0.702	0.972	0.96	1.01	0.996	0.932	0.824
NCI-H1915	0.783	0.807	0.807	0.816	0.814	0.431	0.571	0.564	0.573	0.491	0.404		0.409	0.337	1.09	1.12	1.09	1.1	1.11	0.395
HOP-62	1.08	1.05	0.938	1.13	0.913	0.357	0.5	0.438	0.436	0.447	0.344	0.358	0.339	0.24	1.05	0.978	1.06	1.06	1.05	0.335
LCLC-103H						0.415	0.458	0.495	0.446	0.444	0.515	0.526	0.444	0.332	1.06	0.978	1.16	1.13	1.1	0.434
NCI-H460	1.1	1.21	1.14	1.08	0.298	0.088	0.139	0.139	0.161	0.0649	0.41	0.344	0.294	0.283	0.719	0.824	0.65	0.787	0.244	0.387
Calu-6	0.781	0.952	0.763	0.665	0.278										0.925	0.925	0.928	0.948	0.971	
NCI-H1792	0.492	0.786	0.582	0.64	0.654	0.507	0.664		0.679	0.669					0.436	0.551	0.523	0.6	0.65	
NCI-H661						0.443	0.429	0.42	0.429	0.4	0.355	0.357	0.335	0.413	0.61	0.6	0.603	0.584	0.616	0.3
EBC-1	0.499	0.464	0.426	0.412	0.229										0.906	0.707	0.899	0.879	0.991	
NCI-H522						1.15	0.902	1.14	0.894	1.1	0.541	0.502	0.515	0.485						0.608
NCI-H1648								0.27	0.298	0.232	0.44	0.978	0.324	0.307						
NCI-H650						0.303	0.343	0.234	0.363	0.27	0.677	0.432	0.526	0.459	0.539	0.805	0.8	1.26	0.779	0.727
NCI-H1650	1.21	1.34	1.26	1.38	1.19	0.301	0.343	0.366	0.352	0.283	0.369	0.333	0.311	0.301						0.393
NCI-H2342						0.527	0.502	0.582	0.565	0.501	0.427	0.482	0.557	0.529						0.664
NCI-H1299	1.02	1.02	1.06	1	1.01										0.941	0.981	0.964	0.99	1.03	
SW 900						0.447		0.502	0.489	0.589	0.478	0.696	0.408	0.333						0.463
IA-LM	0.713	0.785	0.699	0.881	0.156										0.729	0.441	0.652	0.803	0.626	
A549	1.12	1.29	1.23	0.467	0.0543										0.653	0.653	0.593	0.571	0.51	
NCI-H358						0.141	0.139	0.123	0.135	0.101	0.087	0.0969	0.113	0.129	0.868	0.744	0.65	0.75	0.461	0.0898
NCI-H596	1.02	0.884	0.9	0.95	0.929						0.953	0.971	0.847	0.691	1.1	1.01	1.01	1.04	1.1	0.891
ABC-1						0.432	0.736	0.751	0.851	0.573	0.188	0.171	0.166	0.188	0.83	0.71	0.861	0.855	0.977	0.166
